Assay results as given in article PMC6667648 (Frontiers in Microbiology, 2019).
≈ marks a conversion by molar mass, not a printed value. Where a SMILES comes first, the peptide text is derived from it. Bridges are numbered along the chain shown (N, C = ends).

Experiments:
P. aeruginosa 6186 = assay: microbe, parasite or virus in culture; format: cell-based, Pseudomonas aeruginosa; conditions: 6186, 24 h
Experimental: (§1) Strains were obtained from American Type Culture Collection (ATCC, Manassas, VA) or the clinical isolate collection at Trideum Biosciences (Frederick, MD, USA). Bioluminescence strains of P. aeruginosa 19660, transfected with the Xen5 luciferase gene, and S. aureus ATCC® 49525™ (Wright), transfected with the Xen36 luciferase gene, were obtained from Perkin Elmer (Hopkinton, MA).
(§2) A single colony was aseptically picked from an agar overlay and released in 25–30 mL of pre-warmed trypticase soy broth in a culture flask. Each culture was incubated overnight in a 37°C incubator. […] Pathogen growth was measured by absorbance at 600 nm. Four replicas were included for each test agent concentration. […]

P. aeruginosa ATCC 19660 = assay: microbe, parasite or virus in culture; format: cell-based, Pseudomonas aeruginosa; conditions: P. aeruginosa ATCC 19660; 24-h incubation; mean of 3 replicates from 2 independent experiments
Experimental: as §1, §2

P. aeruginosa ATCC 27853 = assay: microbe, parasite or virus in culture; format: cell-based, Pseudomonas aeruginosa; conditions: P. aeruginosa ATCC 27853; 24-h incubation; mean of 3 replicates from 2 independent experiments
Experimental: as §1, §2

MRSA 6313 = assay: microbe, parasite or virus in culture; format: cell-based, Staphylococcus aureus; conditions: MRSA 6313; 24-h incubation; mean of 3 replicates from 2 independent experiments
Experimental: as §1, §2

MRSA 6381 = assay: microbe, parasite or virus in culture; format: cell-based, Staphylococcus aureus; conditions: MRSA 6381; 24-h incubation; mean of 3 replicates from 2 independent experiments
Experimental: as §1, §2

MRSA ATCC 33592 = assay: microbe, parasite or virus in culture; format: cell-based, Staphylococcus aureus; conditions: MRSA ATCC 33592; 24-h incubation; mean of 3 replicates from 2 independent experiments
Experimental: as §1, §2

S. aureus 6061 = assay: microbe, parasite or virus in culture; format: cell-based, Staphylococcus aureus; conditions: 6061, 24 h
Experimental: as §1, §2

S. aureus B-767 = assay: microbe, parasite or virus in culture; format: cell-based, Staphylococcus aureus; conditions: B-767, 24 h
Experimental: as §1, §2

S. epidermis ATCC 51625 = assay: microbe, parasite or virus in culture; format: cell-based, S. epidermidis; conditions: ATCC 51625, 24 h
Experimental: as §1, §2

C. parapsilosis Y-1761 = assay: microbe, parasite or virus in culture; format: cell-based; conditions: 24-h incubation, mean of 3 replicates from 2 independent experiments
Experimental: as §1, §2

C. parapsilosis Y-1763 = assay: microbe, parasite or virus in culture; format: cell-based; conditions: 24-h incubation, mean of 3 replicates from 2 independent experiments
Experimental: as §1, §2

E. cloacae 6053 = assay: microbe, parasite or virus in culture; format: cell-based; conditions: 6053, 24 h
Experimental: as §1, §2

E. cloacae 6054 = assay: microbe, parasite or virus in culture; format: cell-based; conditions: 6054, 24 h
Experimental: as §1, §2

[1] = tested on: murine L929 fibroblast cells; assay: Fibroblast cytotoxicity, bioluminescence; format: cell-based; conditions: 64 μg/mL (maximum concentration evaluated), 24 h incubation
Experimental: Non-invasive real-time evaluation of viability, mammalian, and bacterial cells, was performed using bioluminescent human keratinocytes (HaCaT, AddexBio, San Diego, CA) and murine L929 fibroblast cells (ATCC, Manassas, VA). The bioluminescent variants were constructed by transfection with a luciferase gene (RediFect Red-Fluc-Puromycin, Catalog #CL596002) (Hamblin et al., [2003]). […] Each concentration was performed in triplicate. Bioluminescence imaging was performed at pre-specified times (0, 15, and 30 min and 1, 3, 5, 8, and 24 h) and compared to concurrently run vehicle-controls. The 96-well plate was positioned on the stage (12.5-cm field of view) within the in vivo Imaging System (IVIS) imaging system (Caliper Life Sciences, Inc., Hopkinton, MA, USA), with an open emission filter, binning of 4, and f-stop 1, and a 1-min exposure time. The resultant photons emitted from the live cells were quantified using Living Image® software (version 4.3, Caliper Life Sciences, Inc.). Monitoring bioluminescence allows assessment of the kinetics of cellular viability as there is a tight correlation between photon count imaging and viable counts (Kadurugamuwa et al., [2003]).

human red blood cells = assay: Human hemolysis assay; format: cell-based; conditions: 30 min, 37°C, absorbance 540 nm, duplicate
Experimental: […]. Distilled water was used as a control for 100% hemolysis with the background level of absorbance being water only (Stasiuk et al., [2004]). The percent hemolysis was calculated as (test wellAbs – backgroundAbs) / (100% lysisAbs – backgroundAbs). Experiments were run in duplicate.

[2] = tested on: Gentamicin resistant P. aeruginosa from passage 30; conditions: gentamicin resistant P. aeruginosa from passage 30 (gentamicin MIC 512 μg/mL)
Description: (§3) The development of resistance was confirmed if the microorganism started growing at continuously higher concentrations. […] Evaluations were done in duplicate.

[3] = tested on: clindamycin resistant S. aureus from passage 30
Description: as §3

[4] = tested on: mature (120 h) MRSA ATCC 1556 biofilm; format: cell-based, Staphylococcus aureus; conditions: mature (120 h) MRSA biofilm, 16 h treatment, CFU count, three technical replicates
[5] = tested on: P. aeruginosa P14 biofilm; format: cell-based, Pseudomonas aeruginosa; conditions: CFU count
[6] = tested on: MDR S. epidermidis ATCC 700578 biofilm; format: cell-based; conditions: CFU count
Experimental: (§4) Biofilms (methicillin-resistant S. epidermidis, MRSE ATCC 51625 and multidrug resistant S. epidermidis MDR-SE ATCC 700578) were established following inoculation of 10^5 CFU/mL in Minimum Essential Media for 6 h or 5 days representing preformed or mature biofilm respectively, in plastic 96-well plates (Costar, Catalog #3595). […] Following test agent incubation, the media (including the planktonic cells) was removed and then the remaining biofilm treated with 50 μL 0.1% Triton X100 followed by agitating the plate on a rocker for 30 min. The biofilm was then disrupted with a 96 well replicator, the resultant mixture vortexed, samples serially diluted, plated on agar plates, and incubated overnight and CFUs subsequently counted. Three technical replicates were performed for each condition tested.

[7] = tested on: methicillin-resistant S. epidermidis biofilm; format: cell-based
Experimental: as §4

[8] = pooled normal human serum, 200 μg/mL, 72 h, 37°C, LC-MS/MS, triplicate
[9] = statement in discussion

CC[C@H](C)[C@@H]1NC(=O)CNC(=O)[C@H](CCCCN)NC(=O)[C@H](Cc2ccc(O)cc2)NC(=O)[C@@H]2CSSC[C@H](NC1=O)C(=O)N[C@@H](Cc1ccccc1)C(=O)N[C@@H](CCCCN)C(=O)N[C@@H](CCCCN)C(=O)N[C@H](C(=O)N[C@@H](CCCCN)C(N)=O)CSSC[C@H](NC(=O)[C@H](Cc1ccccc1)NC(=O)[C@@H](N)CCCNC(=N)N)C(=O)N[C@@H](Cc1c[nH]c3ccccc13)C(=O)N[C@@H](CCCCN)C(=O)N[C@@H](C(C)C)C(=O)N2 [RP557] (H-RFCWKVCYKGICFKKCK-NH2; disulfide 3-16, 7-12)
Minimum Inhibitory Concentration (MIC) (P. aeruginosa 6186): 2.0 [4] μM | Minimum Inhibitory Concentration (MIC) (P. aeruginosa ATCC 19660): 2.0 [4] μM | Minimum Inhibitory Concentration (MIC) (P. aeruginosa ATCC 27853): 2.0 [4] μM | Minimum Inhibitory Concentration (MIC) (MRSA 6313): 2.0 [4] μM | Minimum Inhibitory Concentration (MIC) (MRSA 6381): 2.0 [4] μM | Minimum Inhibitory Concentration (MIC) (MRSA ATCC 33592): 2.0 [4] μM | Minimum Inhibitory Concentration (MIC) (S. aureus 6061): 4.0 [8] μM | Minimum Inhibitory Concentration (MIC) (S. aureus B-767): 2.0 [4] μM | Minimum Inhibitory Concentration (MIC) (S. epidermis ATCC 51625): 4.0 [8] μM | Minimum Inhibitory Concentration (MIC) (C. parapsilosis Y-1761): 8.0 [16] μM | Minimum Inhibitory Concentration (MIC) (C. parapsilosis Y-1763): 1.0 [2] μM | Minimum Inhibitory Concentration (MIC) (E. cloacae 6053): 4.0 [8] μM | Minimum Inhibitory Concentration (MIC) (E. cloacae 6054): 4.0 [8] μM | Fibroblast cell killing [1]: limited fibroblast cell killing | Minimum hemolytic concentration required to cause 10% hemolysis, MHC (human red blood cells): 128 µg/mL | MIC [2]: 4 µg/mL (≈ 1.87 µM) | MIC [3]: 2 µg/mL (≈ 0.936 µM) | EC90 (concentration to reduce biofilm by 90%) [4]: 2 µg/mL (≈ 0.936 µM) | EC50, biofilm [5]: 32 µg/mL (≈ 15 µM) | EC90, biofilm [6]: 8 µg/mL (≈ 3.75 µM) | EC90, biofilm [7]: 8 µg/mL (≈ 3.75 µM) | Degradation in human serum [8]: did not degrade | Water solubility [9]: water-soluble
